Assay results reported in US20250082589A1, “PHENYLETHYLIDENEHYDRAZINE DIMERS AND METHODS OF USING SAME” (NEURAWELL THERAPEUTICS, priority 2021, published 2025).
Where two headings read alike, the source gives them in different places.

What was measured:
[1] = 1H NMR stability of azine sample 1830-012 over time and in different deuterated solvents; assay type: physicochemical; conditions: 1830-012 oil after 3 days storage in −20° C. under argon, new sample measured directly in CDCl3
Experimental: ^1H NMR was employed to probe the stability of azine sample 1830-012 both in terms of time after preparation and in different deuterated solvents.
Additionally, a new sample from the oil obtained in sample 1830-012, in which the oil was prepared after 3 days storage in −20° C. under argon, was prepared and measured directly in CDCl3.
After 3 days, the contamination of the azine with PEH was equal to 9% (the ratio of PEH:Azine was 9:91). […] Thus, it is theorized that purification cannot be accomplished by column chromatography. […] First, EtOH (2.0 mL) was added to 300 mg of crude product 1830-012 and heated to reflux. During refluxing, ˜1.0 mL of EtOH evaporated. The mixture was then slowly cooled to room temperature and then cooled to 0° C. After 3 days at 0° C., no precipitate was observed. In a second attempt, cold EtOH (3.0 mL) was added to 600 mg of crude product 1830-012 and the suspension was stirred at 0° C. for 15 minutes. The white precipitate was filtered (m=131 mg) and washed with small amounts of cold EtOH (see FIG. 5).

[2] = Stability under acidic or basic UPLC conditions; assay type: physicochemical
Experimental: Batch 1830-001. […] The purity of the sample was 20%.
The peak at R.T.=1.70 min corresponds to the azine according to mass spectrometry (FIG. 13B, bottom panel), and the azine was present at 69% purity.
UPLC Method. The UPLC analysis was performed on a Waters ACQUITY UPLC I-Class PLUS System with a Waters SQ Detector 2 in the wavelength range of 200-400 nm. Compounds were separated on an Acquity UPLC BEH C18 1.7 μm/130 Å (2.1×100 mm) column using gradient elution with a column temperature of 40° C. at a flow of 0.5 mL/min. The elution scheme shown in Table 11 was used for chromatographic separation. Mobile phase A was 0.05% ammonium hydroxide in water (28.0-30.0% NH3 basis) and Mobile phase B was acetonitrile. The syringe washing solution was 50% ACN, 50% water. The MS conditions were a mass range of […] and scan time of 0.15 s.

[3] = LC-MS analysis of azine yellow precipitate (1830-014) after dissolution and storage; assay type: physicochemical
Experimental: Crystallization was performed on 3.6 g of the crude azine product for 1830-014 using the second method as described above for 1830-012 (FIG. 9). White (m=0.490 g) and yellow (m=1.473 g) precipitates were obtained. LC-MS analysis was also performed on the azine sample obtained as a yellow precipitate (1830-014), with chromatograms obtained directly after dissolution (FIG. 10A) and 27 hours after dissolution (FIG. 10B). The quantitative results are described in Table 12 and Table 13 below. According to the LC-MS analysis using % relative area corresponding to the appropriate MS peaks, the azine sample obtained as a yellow precipitate was 96.24% azine. 27 hours after dissolution, the sample was 91.77% azine. After one month of storage at −20° C. under Argon, the sample was 91.56% azine (data not shown).
LCMS Method. The LCMS analysis was performed on a Dionex UHPLC Ultimate 3000 with DAD detector/Thermo Scientific ISQ EC-Mass Spectrometer with a wavelength range of 190-350 nm±4 nm. Compounds were separated on a Kinetix® 2.6 μm XB—C18 (4.6×50 mm), 110 A, column no. 00B-4496-EO column using gradient elution with a column temperature of 25° C. at a flow of 1.0 mL/min. The elution scheme shown in Table 12 was used for chromatographic separation. Mobile phase C was 0.05% ammonium hydroxide in water (28.0-30.0% NH3 basis) and Mobile phase D was acetonitrile. The syringe washing solution was 20% MeOH. The MS conditions were a mass range of 100-1000 m/z and scan speed of 12 000 amu/sec.

[4] = pH stability studies at pH 9.2 and pH 7.4; assay type: physicochemical
From the text: Batch 1830-013. Although UPLC confirmed the presence of PEH and the azine (FIG. 6A), no signals due to either species were detected in the NMR in CDCl3 (FIG. 6B).

[5] = LC-MS analysis of first preparative HPLC fraction in solution and after lyophilization; assay type: physicochemical
Experimental: See also FIG. 22A-C. […] Peak nos. […] Peak nos.
LCMS Method. The LCMS analysis was performed on a Dionex UHPLC Ultimate 3000 with DAD detector/Thermo Scientific ISQ EC-Mass Spectrometer with a wavelength range of 190-350 nm±4 nm. […] The elution scheme shown in Table 12 was used for chromatographic separation. Mobile phase C was 0.05% ammonium hydroxide in water (28.0-30.0% NH3 basis) and Mobile phase D was acetonitrile. The syringe washing solution was 20% MeOH. The MS conditions were a mass range of 100-1000 m/z and scan speed of 12 000 amu/sec.

MAO-A = target: T1, MAO-A (Homo sapiens, UniProt P21397); conditions: cited from earlier work
T1 sequence (P21397 1-527): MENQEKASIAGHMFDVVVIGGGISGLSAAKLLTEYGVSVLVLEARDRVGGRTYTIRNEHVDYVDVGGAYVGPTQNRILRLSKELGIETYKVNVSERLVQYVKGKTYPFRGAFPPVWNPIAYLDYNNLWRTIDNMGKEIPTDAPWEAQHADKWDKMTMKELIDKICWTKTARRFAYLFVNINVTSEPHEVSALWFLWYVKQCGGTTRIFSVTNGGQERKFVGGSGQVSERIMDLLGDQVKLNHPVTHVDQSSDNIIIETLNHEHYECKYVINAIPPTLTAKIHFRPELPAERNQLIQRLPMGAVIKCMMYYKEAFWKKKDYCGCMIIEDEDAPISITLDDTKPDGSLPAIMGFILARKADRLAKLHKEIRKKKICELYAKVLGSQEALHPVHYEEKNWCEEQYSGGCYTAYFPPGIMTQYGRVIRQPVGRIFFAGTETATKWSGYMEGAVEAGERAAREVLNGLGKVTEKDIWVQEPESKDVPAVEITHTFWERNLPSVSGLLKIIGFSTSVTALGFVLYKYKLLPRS

[6] = PEH 1830-003B, NMR
MAO-B = target: T2, MAO-B (Homo sapiens, UniProt P27338); conditions: cited from earlier work
T2 sequence (P27338 1-520): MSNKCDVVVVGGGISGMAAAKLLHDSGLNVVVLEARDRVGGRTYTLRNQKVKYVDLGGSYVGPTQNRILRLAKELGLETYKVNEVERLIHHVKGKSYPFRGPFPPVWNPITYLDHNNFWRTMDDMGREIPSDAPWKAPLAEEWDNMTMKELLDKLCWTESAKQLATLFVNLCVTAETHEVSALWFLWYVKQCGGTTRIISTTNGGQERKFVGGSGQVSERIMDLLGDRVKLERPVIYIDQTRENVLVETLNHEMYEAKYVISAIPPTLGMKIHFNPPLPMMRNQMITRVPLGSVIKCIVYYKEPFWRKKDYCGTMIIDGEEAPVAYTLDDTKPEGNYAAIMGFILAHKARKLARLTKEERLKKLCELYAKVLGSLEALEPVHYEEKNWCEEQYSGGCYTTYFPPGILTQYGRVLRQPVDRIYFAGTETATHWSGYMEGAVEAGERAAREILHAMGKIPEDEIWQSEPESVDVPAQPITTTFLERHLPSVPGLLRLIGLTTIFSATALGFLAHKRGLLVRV

[7] = 1H NMR stability of PEH sample 1830-011 over time and in different deuterated solvents; assay type: physicochemical
Experimental: ^1H NMR was employed to probe the stability of PEH sample 1830-011 both in terms of time after preparation and in different deuterated solvents. […] In Py-d6, about 10% of PEH was transformed to the azine. Additionally, a new sample from the obtained oil in sample 1830-011 in which the oil was prepared after 3 days storage in −20° C. under argon was prepared and measured directly in CDCl3. After 3 days, the contamination of PEH with azine was equal to 18% (the ratio of PEH:Azine was 82:18).

[8] = PEH stability tests by LCMS (batch 1830-023); assay type: physicochemical; conditions: stored at −80° C.
Experimental: See also FIG. 27, which illustrates the results from the stability tests of PEH. […] Compounds were separated on a Kinetix® 2.6 μm XB—C18 (4.6×50 mm), 110A, column no. 00B-4496-EO column using gradient elution with a column temperature of 25° C. at a flow of 1.0 mL/min. The elution scheme shown in Table 15 was used for chromatographic separation. Mobile phase C was 0.05% ammonium hydroxide in water (28.0-30.0% NH3 basis) and Mobile phase D was acetonitrile. The syringe washing solution was 20% MeOH. The MS conditions were a mass range of 100-1000 m/z and scan speed of 12 000 amu/sec.

[9] = PEH 1830-011, first fraction after preparative HPLC and lyophilization

## C(/Cc1ccccc1)=N\N=C\Cc1ccccc1 [azine, (1E,2E)-1,2-bis(2-phenylethylidene)hydrazine]
[1]
  contamination of the azine with PEH: 9%
[2]; acidic conditions
  stability in acidic conditions (UPLC): not stable in acidic conditions
[2]; basic conditions, sample 1830-001
  stability in basic conditions (UPLC): stable in basic conditions
[3]; yellow precipitate 1830-014, 27 hours after dissolution
  % azine by LC-MS relative area: 91.77%
[3]; yellow precipitate 1830-014, after one month of storage at −20° C. under Argon
  % azine by LC-MS relative area: 91.56%
[3]; yellow precipitate 1830-014, directly after dissolution
  % azine by LC-MS relative area: 96.24%
[4]; pH 7.4
  pH stability: undergoes rapid hydrolysis to the aldehyde
[4]; pH 9.2
  pH stability: stable at pH 9.2
[5]; after preparative HPLC
  stability during lyophilization: remained stable after lyophilization
[5]; azine 1830-015, first fraction after lyophilization
  % azine by LC-MS relative area: 99.93%
[5]; azine 1830-015, first fraction after preparative HPLC, in solution
  % azine by LC-MS relative area: 99.61%

## NN=CCc1ccccc1 [PEH, phenylethylidenehydrazine]
MAO-A
  inhibition of MAO-A: weak and transient inhibitor
[6]; after drying for 15 min
  level of azine impurity during drying: 7%
[6]; after drying for 3 hours
  level of azine impurity during drying: 22%
MAO-B
  inhibition of MAO-B: weak and transient inhibitor
[4]; pH 7.4
  pH stability: the azine and the aldehyde are formed
[4]; pH 9.2
  pH stability: stable at pH=9.2
[7]; 1830-011 oil after 3 days storage in −20° C. under argon, new sample measured directly in CDCl3
  contamination of PEH with azine: 18%
[7]; PEH sample 1830-011 in Py-d6
  PEH transformed to the azine: about 10%
[8]; Extract (liq) in chloroform, after 1 day
  Purity of PEH (summarized isomers), stability test: 97.36
[8]; Extract (liq) in chloroform, after 2 days
  Purity of PEH (summarized isomers), stability test: 97.86
[8]; Extract (liq) in chloroform, after 3 days
  Purity of PEH (summarized isomers), stability test: 97.82
[8]; Extract (liq) in chloroform, after 4 days
  Purity of PEH (summarized isomers), stability test: 97.65
[8]; Extract (liq) in chloroform, after 7 days
  Purity of PEH (summarized isomers), stability test: 96.14
[8]; Extract (liq) in chloroform, after reaction
  Purity of PEH (summarized isomers), stability test: 98.49
[8]; solid (concentrated material), after 1 day
  Purity of PEH (summarized isomers), stability test: 68.46
[8]; solid (concentrated material), after 2 days
  Purity of PEH (summarized isomers), stability test: 69.82
[8]; solid (concentrated material), after 3 days
  Purity of PEH (summarized isomers), stability test: 64.26
[8]; solid (concentrated material), after 4 days
  Purity of PEH (summarized isomers), stability test: 66.89
[8]; solid (concentrated material), after 7 days
  Purity of PEH (summarized isomers), stability test: 67.38
[8]; solid (concentrated material), after reaction
  Purity of PEH (summarized isomers), stability test: 81.17
[5]
  stability during lyophilization: undergoes decomposition during lyophilization
[5]; [9]
  % PEH by LCMS: 12.70%
  % azine in PEH sample by LCMS: 85.89%
[5]; PEH 1830-011, first fraction after preparative HPLC, solution, before lyophilization
  % PEH by LCMS: 92.66%
[5]; PEH 1830-011, first fraction in solution after preparative HPLC
  % azine in PEH sample by LCMS: 4.14%
